Entries after “also recorded” stand apart in the source; their conditions may differ. No end group written: not given here.

Consider one substance from patent US7935525B2, “Inhibition of ATF2 activity to treat cancer” (Mount Sinai School of Medicine, priority 2001, dated 2011).

In assay [1] the test system is SW1 tumors. Briefly: cDNA microarray expression profiling of SW1 tumors. The assay is classed as in vivo, mouse. As for the experimental part:
cDNA microarray hybridizations. The 10 k mouse Gem 2 gene set (Incyte Genomics Inc, Palo Alto Calif.) was printed at the NCI on poly-L lysine coated glass using Biorobotics TASII arrayer (Cambridge, England). All protocols for the manufacturing and hybridization of microarrays are available at the NCI web site. Approximately 20 μg of total RNA was used in the reverse transcription reaction to directly label the probe with either Cy-5 dUTP or Cy-3 dUTP (Amersham®). Hybridizations were performed at 65° C. for 12-18 h in a hybridization volume of […]. The hybridized arrays were scanned using an Axon GenePix 4000® scanner (Union city, CA) and fluorescent data were collected using GenePix™ software.
Data Analysis. The axon image data for each microarray was uploaded to the NCI mAdb database for subsequent analysis using a variety of statistical web based tools. Gene clustering analysis was performed using the clustering algorithm and tree view software developed by Mike Eisen (Stanford, Calif.).

Assay [2] has as its system Fas. The assay can be described thus: Cell surface expression of Fas by FACS. The assay is classed as cell-based, human. To be noted: peptide-expressing LU1205; control 122. As for the experimental part:
(§1) Treatment and apoptosis studies of stably transfected melanoma cells. Cells were exposed to UVC at 75 J/m^2 as previously described (Ronai, Z., et al., Oncogene 1998; 16:523-531). SB203580 (1-10 μM) (Calbiochem®, San Diego, Calif.), NCS (50-100 ng/ml) and mitomycin C (MMC) (0.2-1 μM) were used to treat melanoma cells. Flow cytometric analysis was performed on a FACSCalibur™ flow cytometer (Becton Dickinson) using CellQuest™ software as described previously (Nicoletti et al., J. Immunol. Methods 1991; 139:271-279). Cells were pelleted and resuspended in 0.5 ml of hypotonic buffer with 0.1% Triton X-100 containing PI (40 μg/ml) and DNase-free RNase A (1 mg/ml). Cells were incubated at 37° C. for 30 min and analyzed on a FACSCalibur™ flow cytometer (Becton Dickinson). The percentage of cells to the left of the diploid G0/1 peak, characteristic of hypodiploid cells that have lost DNA, was defined as the percentage of apoptotic cells. Analysis was performed with light scatter gating. Surface expression of Fas was determined using anti-Fas-PE antibody (PharMingen® CA) and flow cytometric analysis. Cell surface expression is measured as mean fluorescence intensity (MFI).
In general terms: A flow cytometer gives signals particle by particle.

The subject of assay [3] is 293T human kidney embryonic cells. Briefly: Apoptosis by FACS (hypodiploid fraction). It is filed as cell-based. As to conditions: peptide-expressing 293T; normal growth conditions. As to the method:
[Worded in the source for another cell line; this cell line is reported under the same test.] as §1

Assay [4] concerns human melanocytes (FOM71). The assay can be described thus: Apoptosis by FACS (hypodiploid fraction). It is filed as cell-based. To be noted: transient peptide expression; UV 75 J/m^2; 36 h. As for the experimental part:
as §1

For assay [5], the system named is LU1205 tumor cells. Briefly: Growth of transplanted LU1205 tumors in mice. The assay is classed as in vivo. As to the method:
(§2) Tumor growth and metastasis evaluation in vivo. Cell lines established in culture to constitutively or inducibly express the peptide were injected into mice subcutaneously (S.C.). LU1205, FEMX and SW-1 cells that expressed control or peptide II were trypsinized, resuspended in PBS and injected SC (1×10^6) into 6-7 week old mice in the lower flank. When the tumor reached the size of about 50 mm^3, 5 μM of SB203580 was injected into four areas of the LU1205 tumors every 4 days during a 2-week period. For FEMX tumors UCN-01 (2.5 mg/kg) was fed by gavage twice a day, three times per week for a total of 2 weeks. Tumor growth was monitored every two days. SW-1 cells expressing peptide II under tet-inducible vector were injected SC (1×10^6). When tumors reached a size of about 50 mm^3, the mice received doxycycline in their drinking water ([…]) for a total of 2-4 weeks. At the end of the experiment, the tumors were excised and weighed. The lungs and other organs were subjected to histopathological examination to detect metastatic lesions.

The test system of assay [6] is ATF2/c-Jun transcriptional activity. The assay can be described thus: Jun2-Luciferase reporter in SW1 clones. It is filed as cell-based, mouse. As to the method: Transient transfection and transcriptional analysis. Mouse melanoma tumors grown in culture were transfected with control vector or peptide II expressing luciferase or β-galactosidase constructs (Bhoumik et al., Clin. Cancer Res. 2001; 7(2):331-42). Transient transfection of different reporter constructs (0.5 cg) with expression vectors and pCMV-Cgal (0.25 Cg) into 5×10^5 melanoma cells was performed using Lipofectamine™ (Life Technologies-BRL). Transfection of the Jun2-luciferase construct permitted us to monitor activity of ATF2 and c-Jun. Jun2-Luc and TRE-Luc constructs were previously described (van Dam H., et al., EMBO J. 1993; 12:479-487; and van Dam H., et al., EMBO J. 1995; 14:1798-1811). Luciferase activity was determined using the Luciferase assay system (Promega®, Madison, Wis.) and normalized on the basis of β-galactosidase (β-Gal) levels in transfected cells. Proteins were prepared for β-Gal and Luciferase analysis at the selected time points after transfection.

Assay [7] deals with SW1 melanoma tumors. Briefly: Growth and metastasis of SW1 tumors constitutively expressing peptide, C3H mice. The assay is classed as in vivo. As for the experimental part:
as §2

Where [8] appears, read: tumors expressing peptide vs control vector.

Consider “peptide II: N-terminal polypeptide fragment of ATF2, amino acid residues 50-100, expressed from pcDNA3 with HA-penetratin tag (EMTLKFGPARNDSVIVADQTPTPTRFLKNCEEVGLFNELASPFENEFKKAS; also: HA-penetratin tag, position not given here; UniProt P15336 50-100, looked up, fragment)”, for which, in assay [1] (four independent experiments), the “expression of ATF2” value is on record as “downregulated” and the “expression of ATF4 transcripts” value was “increase”. Also, in assay [1] (tumors expressing peptide), the “transcripts of interleukin-1 beta, cullin 3, kinesin-associated protein 3, ATF3 and membrane metallo-endopeptidase” value is “up-regulated”; the “transcripts of tyrosine kinase 2, metallothionein 2 and ubiquitin-specific protease 18” value is “downregulated”. Also, in assay [1] (setting [8]), the “expression of Fas-associated genes” value is “Downregulation”, the “expression of growth-associated genes” value is listed as “consistent downregulation”, the “expression of interferon-associated genes” value is “consistent downregulation” and the “expression of tumor necrosis factor-related genes (and other tumor antigens)” value is recorded as “strongly upregulated”. In addition, the “cell surface expression of Fas, mean fluorescence intensity” value in assay [2] is recorded as 186. For the same substance, the “increase in the degree of basal apoptosis” value in assay [3] was 5 fold. The “sensitivity to undergo UV-induced apoptosis” value in assay [4] is on record as “did not cause a significant increase”. The “inhibition of tumor growth” value in assay [5] (combination: peptide-expressing LU1205 + SB203580) is reported as “significant inhibition of tumor growth; also recorded: more effective”. The tumor cell growth entry in assay [5] (single agent: inhibitor injected into tumor, or peptide expressed in tumor cells) is given as “grew much more slowly”. Further, in assay [6] (SW1 clones constitutively expressing peptide), the “decrease in basal levels of ATF2 transcriptional activities” value stood at 5 fold. In assay [6] (SW1 clones, UV), the “ATF2 transcriptional activities in response to UV-treatment” value is given as “decrease”. Besides, the tumor size in assay [7] (3-week period, control parent tumor 1800 mm^3) turned out to be 100 mm^3. Besides, the tumor size result in assay [7] (SC injection, analyzed three weeks later) is given as “very small tumors”. For the same substance, in assay [7] (at 72 days), the average tumor size result is recorded as “about 1200 mm^3”. Also, the “time for which tumor growth was completely blocked” value in assay [7] (constitutive expression) is on record as “up to 35 days”. The “apoptosis in tumors (tunnel assay)” value in assay [7] (excised SW1 tumors) is recorded as “substantially higher level of apoptosis”. Besides, in assay [7] (monitored up to 72 days), the metastasis result is listed as “no metastasis was seen”.
